In patent US5449677A, “Cyclic benzylamino, benzylamido and benzylimido antipsychotic agents” (McNeilab, Inc., priority 1993, dated 1995):
Where a name gives a salt, the structure may show the parent alone.

Assay: Block of Conditioned Avoidance Responding (Rat) test (CAR)
Type: in vivo, male Fischer 344 rats
Settings: po, read-out: % inhibition CAR
Method: The sessions consist of 60 trials, one every minute.
% change CAR=((Day 2% CAR/Day 1% CAR)×100)-100
Failure to escape was calculated for each animal as follows:
% Failures=#of Failures to Escape/#of trials

Compound | change in vivo at 5 mg/kg [%]
CC(C)Oc1ccccc1N1CCN(Cc2ccccc2CN2CCCCC2=O)CC1 [CP #3, 1-[[2-[[1-[2-(1-Methylethoxy)phenyl]-4-piperazinyl]methyl]phenyl]methyl]-piperidin-2-one Hydrochloride (3:2)] | -6
CC(C)Oc1ccccc1N1CCN(Cc2ccc(CN3CCCCC3=O)cc2)CC1 [CP #2, 1-[[4-[[1-[2-(1-Methylethoxy)phenyl]-4-piperazinyl]methyl]phenyl]methyl]-piperidin-2-one Hydrochloride (5:1)] | -29
CC(C)Oc1ccccc1N1CCN(Cc2cccc(CN3CCCCC3=O)c2)CC1 [CP #1, 1-[[3-[[1-[2-(1-Methylethoxy)phenyl]-4-piperazinyl]methyl]phenyl]methyl]piperidin-2-one Hydrochloride (3:2)] | -89
